# Test results published in publication PMC10479830, “Nucleoside analogs NM107 and AT-527 are antiviral against rubella virus” (PNAS Nexus, 2023).
# Like-named read-outs stand apart in the source and are kept apart here.
# Key:
# [1] = tested on: rubella RA27/3 virus; assay: microbe, parasite or virus in culture; assay type: cell-based; details: for activity against rubella in A549 cells: dose-response; for inhibition at 1 µM: Rubella virus, A549, read-out: inhibition of infection in primary screen; for inhibition of infection in primary screen: 1 µM, compared with vehicle alone
# From the text: (§1) We developed a high-throughput, high-content, cell-based assay to monitor rubella virus infection of the human respiratory cell line A549, as the respiratory tract is infected in humans. […] We infected A549 cells with the rubella virus vaccine strain (RA27/3) and monitored infection using an antibody to the viral glycoprotein E1 (Fig. 1A) ([13]). […] To evaluate the utility of nanchangmycin as a positive control for our assay development, we performed a dose–response assay for nanchangmycin using automated fluorescent microscopy to quantify the cell number as a surrogate for cell viability and percent infection (Fig. 1A).
# A549 cells were plated in 384 well plates at 3,000 cells/well, HBMEC were plated at 7,000 cells/well, or Jeg-3 cells were plated at 3,000 cells/well in 20 μL growth media. The next day, 50 nL of drugs were added to assay wells, yielding a final concentration of 1 µM. The positive control nanchangmycin (n = 32) and the negative control DMSO (n = 32) were spotted on each assay plate. […] HBMECs were spin-infected by centrifuging at 1,250×g for 1 h at 25°C. Cells were fixed at 48 h post infection (hpi) in 4% formaldehyde/phosphate-buffered saline (PBS) for 15 min at room temperature and then washed twice with PBS. Cells were blocked with blocking buffer [2% bovine serum albumin in PBS with 0.1% Triton X-100 (PBST)]) for 1 h and incubated with primary antibody (mouse antirubella E1, CDC, 1 μg/mL) overnight at 4°C. […] Cells were washed three times with PBST and imaged using ImageXpress Micro (Molecular Devices). Cells were imaged with a 10× objective capturing four sites per well. The total number of cells and the percentage of infected cells were measured using the MetaXpress 5.3.3 cell scoring module. The aggregated percent infection of the DMSO and 2 µM nanchangmycin control wells on each assay plate were used to calculate Z′-factors. Sample well infection was normalized to aggregated DMSO plate control wells and expressed as percentage of control (POC = [%Infection sample/Average %Infection DMSO] × 100) and Z-score (Z = [%Infection sample − Average %Infection DMSO]/Standard Deviation %Infection DMSO) in Spotfire (PerkinElmer). Candidate hits were selected as compounds with POC <40% and viability >60%, compared with vehicle control.
# (§2) Drugs were purchased as powders from Selleckchem, MedchemExpress, and MedKoo and suspended in DMSO. Drugs were arrayed in 8-pt dose–response in 384 well plates. Infections were performed using the screening conditions. DMSO (n = 32) and 2 µM nanchangmycin (n = 16) were included on each validation plate as controls for normalization. Infection at each drug concentration was normalized to aggregated DMSO plate control wells and expressed as POC (POC = %Infection sample/Average %Infection DMSO cont). A nonlinear regression curve fit analysis (GraphPad Prism 8) was performed on POC infection and cell viability using log10 transformed concentration values to calculate IC50 values for infection and CC50 values for cell viability. SI was calculated as a ratio of the drug's CC50 and IC50 values (SI = CC50/IC50).
# [2] = cell number (cell viability) in A549 cells, Hoechst 33342, automated microscopy; assay type: cell-based, human; details: human
# From the text: as §1
# (§3) A549 cells were plated in 384 well plates at 3,000 cells/well, HBMEC were plated at 7,000 cells/well, or Jeg-3 cells were plated at 3,000 cells/well in 20 μL growth media. The next day, 50 nL of drugs were added to assay wells, yielding a final concentration of 1 µM. The positive control nanchangmycin (n = 32) and the negative control DMSO (n = 32) were spotted on each assay plate. One hour later, cells were infected with rubella virus at a multiplicity of infection (MOI) = 0.234 for A549s, MOI = 0.1 for HBMEC, MOI = 0.05 for Jeg-3 cells). […] HBMECs were spin-infected by centrifuging at 1,250×g for 1 h at 25°C. Cells were fixed at 48 h post infection (hpi) in 4% formaldehyde/phosphate-buffered saline (PBS) for 15 min at room temperature and then washed twice with PBS. Cells were blocked with blocking buffer [2% bovine serum albumin in PBS with 0.1% Triton X-100 (PBST)]) for 1 h and incubated with primary antibody (mouse antirubella E1, CDC, 1 μg/mL) overnight at 4°C. Cells were washed three times with PBST and incubated in secondary (1:1000 antimouse Alexa Fluor 488 and 5 μg/mL Hoechst 33342) for 1 h at room temperature. Cells were washed three times with PBST and imaged using ImageXpress Micro (Molecular Devices). Cells were imaged with a 10× objective capturing four sites per well. The total number of cells and the percentage of infected cells were measured using the MetaXpress 5.3.3 cell scoring module. The aggregated percent infection of the DMSO and 2 µM nanchangmycin control wells on each assay plate were used to calculate Z′-factors. Sample well infection was normalized to aggregated DMSO plate control wells and expressed as percentage of control (POC = [%Infection sample/Average %Infection DMSO] × 100) and Z-score (Z = [%Infection sample − Average %Infection DMSO]/Standard Deviation %Infection DMSO) in Spotfire (PerkinElmer). Candidate hits were selected as compounds with POC <40% and viability >60%, compared with vehicle control.
# as §2
# [3] = tested on: rubella virus; assay: rubella virus infection of HBMEC, dose-response; assay type: cell-based; details: dose-response
# Protocol: Rubella virus can infect diverse tissues in vivo, and viruses can show tissue-specific dependencies on host factors. […] First, we developed assays in human brain microvascular endothelial cells (HBMECs) as a model for endothelial cells. We again used nanchangmycin to optimize the assay (Fig. 3A and B).
# as §3, §2
# [4] = tested on: Jeg-3 cells; assay: cell number (cell viability) in Jeg-3 cells; assay type: cell-based, human
# Protocol: as §3, with “The aggregated percent infection of the DMSO and 2 µM nanchangmycin control wells on each assay plate were used to calculate Z′-factors.” left out, “Candidate hits were selected as compounds with POC <40% and viability >60%, compared with vehicle control.” left out
# Drugs were purchased as powders from Selleckchem, MedchemExpress, and MedKoo and suspended in DMSO. […] Infection at each drug concentration was normalized to aggregated DMSO plate control wells and expressed as POC (POC = %Infection sample/Average %Infection DMSO cont). […] SI was calculated as a ratio of the drug's CC50 and IC50 values (SI = CC50/IC50).
# [5] = tested on: rubella virus; assay: rubella virus infection of Jeg-3 cells, dose-response; assay type: cell-based; details: Jeg-3 cells, dose-response
# Protocol: Since rubella can cause congenital infections, we next developed assays in the human trophoblast cell line Jeg-3.
# as §3, §2
# [6] = tested on: A549 cells; assay: cell number (cell viability) in A549 cells, Hoechst 33342, automated microscopy; assay type: cell-based, human; details: for cell viability in primary screen: 1 µM
# From the text: as §1, §3, §2
# [7] = tested on: A549 cells; assay: ATPLite assay of cytotoxicity in A549 cells; assay type: cell-based, human
# From the text: To determine whether LY2090314 is targeting GSK-3 or potentially a different target, we tested two additional GSK-3 inhibitors, AZD2858 and CHIR99021. […] We also validated the PIKfyve inhibitor APY0201, known to block entry of viruses that use endosomal entry routes and found robust activity (SI = 102). […] All three of the NAMPT inhibitors identified in the screen (STF-118804, GMX1778, and daporinad) validated with high potency (SI > 500).
# [8] = A549 cells (infected with rubella virus RA27/3), A549 cells, 1 µM, compared with vehicle alone, read-out: cell viability in primary screen
Structure (SMILES),activity against rubella in A549 cells ([1]; A549 cells),selectivity index (SI = CC50/IC50) ([1]; A549 cells),activity against rubella in HBMEC [3],activity against rubella in Jeg-3 cells [5],further results
CN1CCN(S(=O)(=O)c2ccc(-c3cnc(N)c(C(=O)Nc4cccnc4)n3)cc2)CC1 [AZD2858],little activity,–,–,–,–
COC1=C2C[C@@H](C)C[C@H](OC)[C@H](O)[C@@H](C)/C=C(\C)[C@H](OC(N)=O)[C@@H](OC)/C=C\C=C(/C)C(=O)NC(=CC1=O)C2=O [geldanamycin],–,> 163,showed activity,–,"inhibition at 1 µM [1]: > 60%; viability at 48 h, 1 µM [2]: > 60%; toxicity in Jeg-3 cells [4]: high toxicity"
O=C1NC(=O)C(c2cnc3ccccn23)=C1c1cn2c3c(cc(F)cc13)CN(C(=O)N1CCCCC1)CC2 [LY2090314],–,> 2000,showed activity,no activity,"inhibition at 1 µM [1]: > 60%; viability at 48 h, 1 µM [2, 8]: > 60%; toxicity in Jeg-3 cells ([4]; Jeg-3 cells): no toxicity"
C/C=C/C[C@@H](C)[C@@H](O)[C@H]1C(=O)N[C@@H](CC)C(=O)N(C)[C@H](C)C(=O)N(CC)[C@@H](C(C)C)C(=O)N[C@@H](C(C)C)C(=O)N(C)[C@@H](CC(C)C)C(=O)N[C@@H](C)C(=O)N[C@H](C)C(=O)N(C)[C@@H](CC(C)C)C(=O)N(C)[C@@H](CC(C)C)C(=O)N(C)[C@@H](C(C)C)C(=O)N1C [alisporivir],little activity,–,–,–,–
CC1(C)CCC(c2ccc(Cl)cc2)=C(CN2CCN(c3ccc(C(=O)NS(=O)(=O)c4ccc(N[C@H](CCN5CCOCC5)CSc5ccccc5)c(S(=O)(=O)C(F)(F)F)c4)cc3)CC2)C1 [navitoclax],little activity,–,–,–,toxicity in A549 cells [6]: significant toxicities
Cc1c(-c2ccc(N3CCc4cccc(C(=O)Nc5nc6ccccc6s5)c4C3)nc2C(=O)O)cnn1CC12CC3CC(CC(C3)C1)C2 [A-1331852],little activity,–,–,–,toxicity in A549 cells [6]: significant toxicities
N#Cc1c(Oc2ccc(F)c(NC(=O)Cc3cccc(C(F)(F)F)c3)c2)ccc2nc(NC(=O)C3CC3)sc12 [TAK-632],little activity,–,–,–,–
CCc1c(O)cc(O)c(C(=O)c2ccc(OCCN3CCOCC3)c(OC)c2)c1CC(=O)N(CCOC)CCOC.Cl [KW-2478],–,–,–,–,inhibition of infection in primary screen ([1]; A549 cells): > 60%; cell viability in primary screen [6]: > 60%
CN1CCC(NC(=O)c2cc(-c3c(O)cc(O)cc3Oc3ccc([N+](=O)[O-])cc3)on2)CC1 [NMS-E973],–,–,–,–,inhibition of infection in primary screen ([1]; A549 cells): > 60%
CO[C@H]1CC[C@@H](O[C@H]2C[C@H]([C@]3(C)CC[C@]4(C[C@H](O)[C@@H](C)[C@@H]([C@@H](C)/C=C(\C)C(=O)[C@H](C)C[C@H](C)C(=O)O)O4)O3)O[C@]3(O[C@@H]([C@H]4O[C@@](O)(CO)[C@H](C)C[C@@H]4C)C[C@@H]3C)[C@@H]2C)O[C@@H]1C [nanchangmycin],–,–,–,active,"IC50 ([1]; A549 cells, 48 hpi, read-out: half-maximal inhibitory concentration (IC50), rubella virus infection): 30 nM; EC50 ([1]; A549 cells, MOI = 0.2, 48 hpi, read-out: EC50 (printed in Fig. 1B)): 30 nM; CC50 ([6]; A549 cells, cell number, read-out: half-maximal cytotoxicity concentration (CC50)): 3000 nM"
COC1=CC(c2cc3ccccc3[nH]2)=N/C1=C\c1[nH]c(C)cc1C [obatoclax],little activity,–,showed activity,active,toxicity in A549 cells [6]: significant toxicities
N#CN=C(NCCCCCCOc1ccc(Cl)cc1)Nc1ccncc1 [GMX1778],–,> 500,showed activity,active,"inhibition at 1 µM [1]: > 60%; viability at 48 h, 1 µM ([2]; A549 cells, 1 µM, compared with vehicle alone, read-out: cell viability in primary screen): > 60%; IC50 ([7]; Homo sapiens, A549, read-out: IC50 of ATP content depletion (ATPLite)): 20 nM"
Cc1c[nH]c(-c2cnc(NCCNc3ccc(C#N)cn3)nc2-c2ccc(Cl)cc2Cl)n1 [CHIR99021],little activity,–,–,–,–
Cc1ccc(S(=O)(=O)Cc2nc(-c3ccc(C(=O)NCc4cccnc4)cc3)oc2C)cc1 [STF-118804],–,–,showed activity,active,"inhibition of infection in primary screen ([1]; A549 cells): > 60%; cell viability in primary screen [6]: > 60%; IC50 ([7]; A549 cells, read-out: IC50 of ATP content depletion (ATPLite)): 10 nM"
COc1c(C)c2c(c(O)c1C/C=C(\C)CCC(=O)O)C(=O)OC2 [mycophenolic acid],–,6,showed activity,active,"toxicity in A549 cells ([6]; human, 48 h): higher toxicity in A549 cells than in Jeg-3 cells"
O=C(/C=C/c1cccnc1)NCCCCC1CCN(C(=O)c2ccccc2)CC1 [daporinad],–,> 500,showed activity,active,"inhibition at 1 µM [1]: > 60%; viability at 48 h, 1 µM [2, 8]: > 60%; IC50 ([7]; Homo sapiens, A549 cells, read-out: IC50 of ATP content depletion (ATPLite)): 10 nM"
Cc1cccc(/C=N/Nc2cc(N3CCOCC3)nc(OCCc3ccccn3)n2)c1 [apilimod],–,> 8,showed activity,active,–
Cc1cccc(/C=N/Nc2cc(N3CCOCC3)n3nc(-c4ccncc4)cc3n2)c1 [APY0201],–,102,showed activity,active,–
Cn1cc(C2=C(c3cccc(N)c3)C(=O)NC2=O)c2ccccc21 [CP21R7],–,–,–,–,inhibition of infection in primary screen ([1]; A549 cells): > 60%; cell viability in primary screen [6]: > 60%
